Row | melting point | SMILES
1 | 97 to 99 °C | CCCOc1ccc(C(=O)Cn2cncn2)cc1
2 | 207 to 209 °C | Cc1nc(N)ccc1-c1ccncc1
3 | 62 °C | CC1C(=O)N(Cc2ccccc2)C(=S)N1c1ccc(Oc2ccccc2)cc1 (configuration not stated)
4 | 70 to 71 °C | CCOC(=O)NCCOc1cc(Oc2ccc(C(F)(F)F)cc2Cl)ccc1[N+](=O)[O-]
5 | 262 to 266 °C | Nc1ccc(-c2cc(=O)c(C(=O)O)cn2-c2ccc(F)cc2)cc1
6 | 88 to 89 °C | COCOc1ccc2c(N)noc2c1
7 | 157 to 159 °C | N#Cc1cnn2c1N(C(=O)CCl)CCC2c1cccc(C(F)(F)F)c1 (configuration not stated)
8 | 149 to 151 °C | CCOC(=O)C1=C(COCCNC(=O)n2ccnc2)NC(C)=C(C(=O)OC)C1c1ccccc1Cl (configuration not stated)
9 | 133 to 134 °C | O=S1(=O)NCN(CCF)c2ccc(F)cc21
10 | 120 to 122 °C | CN(C(=O)c1nsc2ccc(-n3c(=O)cc(C(F)(F)F)n(C)c3=O)cc12)S(C)(=O)=O
11 | 122 to 123 °C | [O-][N+]1=C(c2ccccc2)c2cc(Cl)ccc2C=CC1
12 | 149 to 151 °C | COc1ccc2cc(-c3cnc(-c4ccccc4)o3)ccc2c1
13 | 177 to 180 °C | COCC(=O)Nc1ccc2ncnc(Nc3cccc(Cl)c3)c2c1
14 | 113 to 114 °C | CC1(C)C(=O)C(c2cc(F)cc(F)c2)=C1c1ccc(S(C)(=O)=O)cc1
15 | 120 to 122 °C | O=S(c1ccccc1)C1O[C@H](COCc2ccccc2)[C@@H](OCc2ccccc2)[C@H](OCc2ccccc2)[C@H]1OCc1ccccc1 (some centres not stated)
16 | 157 to 158 °C | O=C1CN(c2ccccc2)C(=O)N1S(=O)(=O)c1ccc(Oc2ccccc2)cc1
17 | 91 to 94 °C | O=C1C=CC(=O)c2cc(C(F)(F)F)c(C(F)(F)F)cc21
18 | 128 °C | CCOC(=O)c1cc(-c2ccccc2OC)[nH]c1N
19 | > 270 °C | CCOc1cc2ncc(C#N)c(Nc3ccc4c(=O)[nH][nH]c(=O)c4c3)c2cc1OCC
20 | 147 to 149 °C | CCOP(=O)(OCC)/C(O)=C/c1cn(-c2ccccc2)nc1OCc1ccc(OCc2nc(-c3ccco3)oc2C)c(OC)c1
21 | 79 to 81 °C | CC(C)OCC1(C(C)(F)F)c2cc(C#N)ccc2Nc2ncc(Cl)cc21 (configuration not stated)
22 | 157 to 160 °C | Cc1cn(NCCCc2ccncc2F)c2ccc(OC(=O)NN3CCc4ccccc4C3)cc12

Row | melting point | SMILES
23 | 93 to 94 °C | COc1ccc(CC(=O)c2cc(OC)cc(OC)c2)cc1
24 | 164 °C | COCCC(=O)N[C@H]1CC[C@H](CCN2CCN(c3ncc(C)c4c3CCO4)CC2)CC1
25 | 96 to 97 °C | CCOC(=O)c1ccc(CN(C(C)=O)C(=O)OC(C)(C)C)cc1
26 | 113 to 115 °C | COc1ccc(/C(=C/C=C/C(=O)Oc2ccc([N+](=O)[O-])cc2)c2cccs2)cc1
27 | 133 to 135 °C | CC(=O)Nc1ccc(OCC2CCCC(OC(CCn3ccnc3)c3ccc(F)cc3)O2)cc1 (configuration not stated)
28 | > 250 °C | NC(C(=O)N1CCC(F)C1)C1CCCCC1 (mixture of isomers)
29 | 233 to 234 °C | Cc1cc(OCC(=O)OC(C)C)ccc1NC(=O)NC(=O)c1ccc(C#N)cc1
30 | 105 to 108 °C | CC(C)(C)OC(=O)NC1CCN(C/C=C\CC(c2ccccc2)c2ccccc2)CC1
31 | 166 to 168 °C | CCC(=O)c1c(C)[nH]c(-c2ccccc2)c1N
32 | > 260 °C | CN1CCN(c2ccc(C=CC(=O)N3CCc4c([nH]c5ccccc45)C3c3ccc4c(c3)CCO4)cn2)CC1 (configuration not stated)
33 | 139 to 140 °C | CCc1noc(-c2cn(-c3cc(Cl)ccc3OC)cn2)n1
34 | 110 °C | O=C(COc1ccc(Cl)cc1)N1CC2COCC2C1 (configuration not stated)
35 | 174 to 176 °C | CN(C)c1ccc(C=CC(=O)C=Cc2ccc(N(C)C)cc2)cc1
36 | 107 to 108 °C | CC(O)=C1C(=O)CC(c2cc(Cl)sc2Cl)CC1=O (configuration not stated)
37 | 223 to 225 °C | CC(=O)C1=C(O)C(=C(C)Nc2ccc(O)cc2)C(=O)OC1=O
38 | 91 to 92 °C | O=C(NC1CCOC(O)C1)c1ccc2nonc2c1 (configuration not stated)
39 | 83 to 84 °C | CCCCCCC(Nc1ccccc1)=C1C(=O)ON=C1C
40 | 133 to 135 °C | CC(C)Oc1ccccc1-c1cc(=O)c2cc(C(=O)O)ccc2o1
41 | 124 to 128 °C | CC(=O)Oc1ccc(C(CN(C(C)=O)C(C)(C)C)OC(C)=O)nc1C (configuration not stated)
42 | 130 to 132 °C | COc1cc(/C=C/C(=O)CC(=O)CC(C)(C)C)ccc1O
43 | 109 to 110 °C | Nc1cccc(Nc2nccc(Sc3cccc(Br)c3)n2)c1
44 | 81 to 83 °C | COC(=O)CC1(O)CC2CCC1(CS(=O)(=O)N1CCC3(C=Cc4ccccc43)CC1)C2(C)C (configuration not stated)

Row | melting point | SMILES
45 | 138 to 139 °C | O=C(C=Cc1cccnc1)NC(Cc1c[nH]c2ccccc12)C(=O)CCc1cc(C(F)(F)F)cc(C(F)(F)F)c1 (configuration not stated)
46 | 202 to 203 °C | CSc1nnc(-c2ccc3ncn(-c4ccc(OC(F)F)cc4)c3c2)o1
47 | 202 °C | CCOC(=O)c1ccccc1N(CC(=O)N(C)c1ccccc1)C(=O)CN1C(=O)c2ccccc2C1=O
48 | 125 to 129 °C | CCC1CC(=O)C2(C)CCC3c4ccc(OC)cc4CCC3C12 (configuration not stated)
49 | 40 to 41 °C | CCCCCCCCCCCCCCCCCCNC(=O)SCC(COCc1ccccc1)OC (configuration not stated)
50 | 57 to 58 °C | CCCCCCCCc1ccc(CCC(NC(C)=O)(C(=O)OCC)C(=O)OCC)s1
51 | 78.1 to 80 °C | CCN(CC)c1ccc(/C=C/c2cc(/C=C/c3ccc4cc[nH]c4c3)[nH]n2)c(OCc2ccccc2)c1
52 | 98 °C | CCOCC(=O)Nc1occ(C(C)(C)C)c1C#N
53 | 110 to 112 °C | O=C(O)c1nn(-c2ccc(Cl)cc2)c2c1[C@H]1CC[C@@H]2C1
54 | 68 °C | N#CC(c1ccc(F)cc1)c1ccc([N+](=O)[O-])cc1C(F)(F)F (configuration not stated)
55 | 134 to 135 °C | COc1c(Cl)ccc(-c2nc(C(=O)OC(C)C)c(I)c(N)c2F)c1F
56 | 117 to 118 °C | COC(=O)C1CC(=O)C(N=Nc2ccccc2)=C(O)C1 (configuration not stated)
57 | 203 to 205 °C | CCC(=O)NC1c2cc3nonc3cc2OC(C)(C)C1O (configuration not stated)
58 | 190 °C | NNc1nnc(Cl)cc1N
59 | 147 to 150 °C | C=CCOc1ccc(CC(=O)NCC(=O)N[C@@H](Cc2c[nH]cn2)C(=O)OC)cc1Cl
60 | > 300 °C | COc1ccc(-c2[nH]nc3c2C(=O)c2c(NC(=O)CN4CCC(O)CC4)cccc2-3)cc1
61 | 91 to 97 °C | CCCCCCCCCCCCCCCCS(=O)(=O)OC1CNC1
62 | 76 to 77 °C | Cc1cc2c(cc1CO)CCC(CCN1CCCC1)=C2
63 | 307 to 309 °C | CC(C)(C(=O)O)c1ccc(C(=O)Nc2cn3cc(-c4ccoc4)ccc3n2)cc1
64 | 105 to 107 °C | Cc1cccc2cc3c(=O)n(CCc4c[nH]c5ccccc45)cc(C(=O)NCCN(C)C)c3nc12
65 | 77 to 78 °C | Cc1c(Cc2cc(Cl)cc(Cl)c2)c(C(C)C)nn1CCO
66 | 95 to 97 °C | NCCCc1ccc(OCCC2Oc3ccccc3N(Cc3ccc(Cl)cc3)C2=O)cc1 (configuration not stated)

Row | melting point | SMILES
67 | 176 to 178 °C | Cc1ncnc(-c2cc(O)c(Cl)cc2F)c1C
68 | 190 °C | CCCn1nnn(-c2ccc(N3CCN(c4ccc(OC)cc4)CC3)cc2)c1=O
69 | 321 to 323 °C | N#Cc1c2ccccc2c(-c2cc(Br)c(O)c(Br)c2)c2c1sc1ccccc12
70 | 158 to 160 °C | COc1ccc(C2=NN(C3CCN(S(=O)(=O)c4ccccc4C#N)CC3)C(=O)CC2)cc1OC
71 | 107 to 109 °C | COC(=O)CC[C@@H](Cc1cn(Cc2ccccc2)c2ccccc12)NC(=O)CCCCCCc1ccccc1
72 | 248 to 249 °C | COC(=O)c1ccc(-c2oc3nc[nH]c(=O)c3c2C(=O)OCc2ccccc2)cc1
73 | 100 to 101 °C | COc1cc(C(=O)N(CCCC(=O)NCCCC(=O)O)c2c(C)cccc2C)cc(OC)c1OC
74 | 295 to 297 °C | O=C1c2cc(Cl)ccc2C(O)N1c1ccc2ccc(Cl)nc2n1 (configuration not stated)
75 | 102 to 105 °C | CCOCCc1ccc(OCC=NO)c(C)c1C
76 | 211 to 212 °C | CC(C)c1ccc2c(O)c(C(=O)Nc3ccc(OCC(C)(C)C)c(C#N)c3)sc2n1
77 | 146 to 148 °C | COc1ccc2[nH]c(C)c(CC(N)=O)c2c1
78 | 232 to 234 °C | CCOC(=O)c1ncn2c(-c3cccc(C(F)(F)F)c3)ccnc12
79 | 203 to 204 °C | O=C(CCl)Nc1ccc2c(c1NC(=O)c1ccc(C(F)(F)F)cc1)C(=O)c1ccccc1C2=O
80 | 236 to 238 °C | CC(C)(C)c1cc(-c2coc3c(C(C)(C)C)cc(C(C)(C)C)cc23)c(O)c(C(C)(C)C)c1
81 | 158 to 159 °C | COc1ccc(Br)cc1C(=O)C(Br)C(Br)c1ccc(Br)cc1 (configuration not stated)
82 | 177 to 179 °C | Cc1c(C)c2c(c(C)c1NC=O)CC(C)(C)O2
83 | 122 to 124 °C | O=C(O)CCCCCCCNS(=O)(=O)c1ccc(Cl)cc1
84 | 105 °C | COC(=O)C1(O)CC(OC(C)=O)C(NC(=O)Cc2cc(=O)oc3cc(OC(C)=O)ccc23)C(C(OC(C)=O)C(COC(C)=O)OC(C)=O)O1 (configuration not stated)
85 | 129 to 130 °C | Cc1oc(-c2ccccc2)nc1COc1ccc(CON=C(CCCC(=O)O)c2ccccc2)cc1
86 | 118 to 121 °C | Fc1cccc(-c2nc(Nc3ccc(Cl)cc3)c3ccccc3n2)n1
87 | 143 to 144 °C | Cc1ccc(S(=O)(=O)n2cc3c(c2)SC(=C2SC(SCCc4ccc([N+](=O)[O-])cc4)=C(SCCc4ccc([N+](=O)[O-])cc4)S2)S3)cc1

Row | SMILES | melting point
88 | Cn1cnc2cc(NC(=O)c3cc4cc(F)ncc4n3Cc3cccc(F)c3)ccc21 | 279 to 281 °C
89 | CC(C)N(Cc1nc(-c2ncn3c2CN(C)C(=O)c2c-3ccc(F)c2Cl)no1)C(C)C | 153 to 156 °C
90 | COC(=O)CCCC(Cl)C1SCC2NC(=O)N(Cc3ccccc3)C21 (configuration not stated) | 141 to 142 °C
91 | CN1CCN(c2cccc3ccc(NC(=O)C(F)(F)F)cc23)CC1 | 159 to 160 °C
92 | CN1CC(Cn2cnnn2)CC2c3cccc4[nH]cc(c34)CC21 (configuration not stated) | 206 to 209 °C
93 | CN1Cc2c(Cl)ncn2-c2ccc(F)cc2C1=O | 217 to 218 °C
94 | COC(=O)c1cc(C)c(NC(=O)c2cc(C(F)(F)F)nn2-c2ncccc2Cl)c(C(=O)NC(C)C)c1 | 199 to 200 °C
95 | CCOC(=O)c1ncn2c1CN(C)C(=O)c1cc(C#N)ccc1-2 | 184 °C
96 | CN1CCC(O)(c2cccc(F)c2F)C1 (single isomer, unassigned; (-)) | 131 to 132 °C
97 | c1ccc(Pc2ccccc2)cc1 | 128 to 131 °C

From a melting point compilation (Tetko et al.; mined from patent text by program, amines drawn as free bases though some values may be those of a salt)
